Data taken from patent US11998595B2, “Telomerase polypeptide vaccine for treating cancer” (Ultimovacs AS, priority 2010, dated 2024).

Key:
[1] = tested on: pancreas cancer patient; assay: Clinical course of pancreas cancer patient; assay type: in vivo, human
Method: The vaccine consisted of 5×10^6 autologous monocyte-derived dendritic cells loaded with hTERT mRNA. The patient received 4 weekly injections followed by monthly booster injections.
Adverse events were recorded and graded according to the NCI-common toxicity criteria, as previously reported (Kyte et al, 2006 Gene therapy). […] Objective tumour response was assessed by clinical examination and CT scans prior to start of vaccination and every 3 months during the vaccination. The tumour response was classified according to the Response Evaluation Criteria in Solid Tumors (RECIST) (Therasse P et al, 2000).

[2] = tested on: CD8+ T cells (patient PBMCs); assay: Pentamer staining of hTERT-specific CD8+ T cells by flow cytometry; assay type: cell-based, human; settings: for peptide-specific CD8+ T lymphocytes detected by pentamer: HLA-B7+ lung cancer patient in complete remission after GV1001 vaccination, up to six years (FIG. 6)
[3] = tested on: CD4+ T-cell clones; assay: Peptide-specific T-cell clones from patients (HLA class II allele, peptide titration); assay type: cell-based, human
Description: A value above 2 is considered as a positive response.
T-cell clones specific for all of the peptides of 15- or 30-amino acids shown in Table 1 have also been obtained from patients. […] This is important in order to be able to induce strong immune response in vivo where peptide concentrations are lower.
In addition, the 15- and 30-mer peptides listed in Table 1 show reactivity in nearly all patients tested, which means they are promiscuous with respect to the HLA class II alleles on which they are presented and that they are applicable to nearly the whole population without any need for HLA-screening (see Table 2).

[4] = tested on: T cells (patient PBMCs); assay: T-cell proliferation assay (3H-thymidine) of patient PBMC/T cells with hTERT peptides or transfected DC; assay type: cell-based, human; settings: for response of clinical non-responders: GV1001-vaccinated; for immunological responses in clinical responders: patients responding / 7 clinical responders; for immunological responses in clinical non-responders: patients responding / 10 clinical non-responders
Method: FIG. 1 is a bar graph summarising hTERT T-cell responses detected in pancreas cancer patient vaccinated with DC transfected with hTERT mRNA. In samples from various time points throughout a vaccination schedule, T-cell responses against 24 overlapping hTERT 15-mer peptides were detected. Proliferation in response to peptide-loaded PBMC was measured by ^3H-thymidine incorporation. A stimulation index of >2 is considered an immune response.
Peripheral blood mononuclear cells (PBMCs) were obtained prior to the four standard vaccinations, after 5 weeks and after 12 weeks. PBMCs were also obtained before each monthly booster vaccination. The PBMCs were isolated and frozen as previously described (Kyte et al, 2005). Thawed PBMCs were stimulated once in vitro with tDCs (not with mockDCs) and cultured and then tested in T cell proliferation assays (^3H Thymidine) as previously described (Kyte et al 2006). The T cells were tested in triplicates. Irradiated tDCs and mock-transfected DC controls (mockDCs) were used or PBMC with or without hTERT peptide as APCs. Negative controls with T cells only were included.
PBMCs from various time points were stimulated with an overlapping hTERT 15-mer peptide library or a 30-mer hTERT peptide, all from ProImmune and then tested in proliferation assays as above using irradiated PBMCs as APCs as described in (Bernhardt et al 2006).
T-cell responses to a hTERT peptide library (including the polypeptides from Table 1) were determined for T-cells from 5 patients in addition to the patients reported in Examples 1 and 2. The methods were the same as previously described in Example 1 or in Bernhardt et al 2006. In brief, PBMCs from various time points during vaccination were stimulated with the overlapping hTERT peptide library prior to testing for specific T-cell responses in proliferation assays.
The proliferative T-cell responses of each patient to a series of peptides were then determined as explained in Example 1. The results are tabulated in Table 5 and are shown graphically in FIG. 14 in which the peptide designations are referenced in Table 6 (the results for peptides 726 and GV1001 are shown only for comparison).
Four patients who were clinical non-responders following a lung cancer diagnosis and a GV1001 (SEQ ID NO. 10) peptide vaccination were studied. These patients were all stage IV lung cancer patients vaccinated with GV1001. […] The proliferative T-cell responses of each patient to a series of peptides were determined in the same manner as in Example 1, at one time point. The peak response of each patient during the study period to peptide GV1001 is also shown which confirms that each patient responded immunologically to GV1001 vaccination.
Six patients who were clinical non-responders following a melanoma cancer diagnosis and a GV1001 peptide (SEQ ID NO. 10) vaccination were studied. These patients were all stage IV melanoma patients and included in the same GV1001 vaccination trial as melanoma patients P7 and P8 who were long term survivors (see Example 6). […] Five of the patients also experienced progressive disease and one patient, designated Melanoma P3, experienced some stabilization of the disease but still had short survival. The proliferative T-cell responses of each patient to a series of peptides were determined in the same manner as in Example 1, at one time point. The peak response of each patient during the study period to peptide GV1001 is also shown which confirms that each patient responded immunologically to GV1001 vaccination.

[5] = HLA class II allele DR*04, 3 patients, malignant melanoma
[6] = four stage IV lung cancer patients
[7] = patient Colon ca P1, GV1001-vaccinated, clinical responder
[8] = patient Lung ca P1, GV1001-vaccinated, clinical non-responder, one time point
[9] = patient Lung ca P2, GV1001-vaccinated, clinical non-responder, one time point
[10] = patient Lung ca P3, GV1001-vaccinated, clinical non-responder, one time point
[11] = patient Lung ca P4, GV1001-vaccinated, clinical non-responder, one time point
[12] = patient Lung ca P5, GV1001-vaccinated, clinical responder
[13] = patient Lung ca P6, DC/hTERT mRNA-vaccinated, clinical responder, high background
[14] = patient Melanoma P1, GV1001-vaccinated, clinical non-responder, one time point
[15] = patient Melanoma P2, GV1001-vaccinated, clinical non-responder, one time point
[16] = patient Melanoma P3, GV1001-vaccinated, clinical non-responder, one time point
[17] = patient Melanoma P4, GV1001-vaccinated, clinical non-responder, one time point
[18] = patient Melanoma P5, GV1001-vaccinated, clinical non-responder, one time point
[19] = patient Melanoma P6, GV1001-vaccinated, clinical non-responder, one time point
[20] = patient Melanoma P7, GV1001-vaccinated, clinical responder
[21] = patient Melanoma P8, GV1001-vaccinated, clinical responder
[22] = patient Melanoma P9, non-vaccinated, spontaneous response
[23] = patient Pancreas ca P1, DC/hTERT mRNA-vaccinated, clinical responder, high background

Molecule	response of clinical non-responders [4, 6]	proliferative T-cell response (SI) [4, 7]	proliferative T-cell response (SI) [4, 8]	proliferative T-cell response (SI) [4, 9]	proliferative T-cell response (SI) [4, 10]	proliferative T-cell response (SI) [4, 11]	proliferative T-cell response (SI) [4, 12]	proliferative T-cell response (SI) [4, 13]	proliferative T-cell response (SI) [4, 14]	proliferative T-cell response (SI) [4, 15]	proliferative T-cell response (SI) [4, 16]	proliferative T-cell response (SI) [4, 17]	proliferative T-cell response (SI) [4, 18]	proliferative T-cell response (SI) [4, 19]	proliferative T-cell response (SI) [4, 20]	proliferative T-cell response (SI) [4, 21]	proliferative T-cell response (SI) [4, 22]	proliferative T-cell response (SI) [4, 23]	response of clinical non-responders ([4]; six stage IV melanoma patients)	also measured
Nc1ccn([C@@H]2O[C@H](CO)[C@@H](O)C2(F)F)c(=O)n1 [gemcitabine]																				adverse effects ([1]; after 5 months): suspended due to adverse effects; Clinical response ([1]; before DC vaccination): disease stabilization
RPALLTSRL (listed as Homo sapiens) [SEQ ID NO. 5]																				peptide-specific CD8+ T lymphocytes detected by pentamer [2]: stable CD8+ T cell population
RPGLLGASVL (listed as Homo sapiens) [SEQ ID NO. 25]																				peptide-specific CD8+ T lymphocytes detected by pentamer [2]: second minor CTL population
RLTSRVKALFSVLNY (listed as Homo sapiens) [SEQ ID NO. 8]	very low or no response	2.6	1.2	0.9	1.1	1.1	0.8	2.1	0.9	0.8	0.6	1.1	7.1	0.8	4.8	6.3	4.2	1.3	very low or no response	Specific clones [3, 5]: 3
SVLNYERARRPGLLG (listed as Homo sapiens) [SEQ ID NO. 2]																				Specific clones ([3]; HLA class II allele DR*01, 2 patients, malignant melanoma): T-cell lines; Specific clones [3, 5]: 3; Specific clones ([3]; HLA class II allele DR*08, 2 patients, malignant melanoma and lung cancer): >85
PGLLGASVLGLDDIH (listed as Homo sapiens) [SEQ ID NO. 55]																				proliferative T-cell response (detected or not) ([4]; pancreas cancer patient vaccinated with DC/hTERT mRNA): recognized by T cells
AERLTSRVKALFSVL (listed as Homo sapiens) [SEQ ID NO. 9]	very low or no response	13.9	0.8	0.6	0.8	0.7	1.2	0.7	0.8	0.6	0.5	0.8	0.9	1.3	3.2	1	5.9	1	very low or no response	patients with CTL responses shown by pentamer analysis ([2]; patients of Examples 1 to 8): 3; immunological responses in clinical responders [4]: 3/7; immunological responses in clinical non-responders [4]: 0/10
RTFVLRVRAQDPPPE (listed as Homo sapiens) [SEQ ID NO. 7]	very low or no response	20.6	1.3	1	1.2	0.4	1.1	0.8	0.9	1	0.7	1	1.2	4.8	4.9	2.8	5.7	2.5	very low or no response	immunological responses in clinical responders [4]: 5/7; immunological responses in clinical non-responders [4]: 1/10
